From US20100035822A1, “PROLINE-RICH PEPTIDES, PHARMACEUTICAL COMPOSITION, USE OF ONE OR MORE PEPTIDES AND METHOD OF TREATMENT” (priority 2006, published 2010)
Entries after “also recorded” stand apart in the source; their conditions may differ.

Legend:
[1] = tested on: spontaneously hypertensive rats (SHR); test: Anti-hypertensive effect on mean arterial blood pressure of SHR; assay type: in vivo, rat
Procedure: In vivo studies on the effect of peptides of the present invention were performed on adult male spontaneously hypertensive rats, and normotensive Wistar rats (Rattus novergicus) weighing 250 to 350 g. Animals had free access to chow (Nuvilab) and water, and were submitted to a light-dark cycle of 12 hours each. Procedures involving animals and their care were conducted according to Giles [Giles A. R. Guidelines for the use of animals in biomedical research. Thromb. Haemost. 58: 1078-1084, 1987]. […]
The cardiovascular parameters (pulse arterial pressure (PAP), mean arterial pressure (MAP), and heart rate (HR)) were monitored by a solid-state strain gauge transducer connected to a computer through a data acquisition system (MP 100; BIOPAC Systems, Inc, Santa Barbara, Calif., USA). The PAP, MAP and HR were continuously presented in different monitor channels and recorded in the computer hard disk for late analysis.
Before drug administration, cardiovascular parameters of the rats were monitored for 40 minutes. […] Arterial blood pressure and heart frequency were continuously monitored for 360 minutes.
Results were expressed as the mean variation of MAP±standard deviation. […]

[2] = tested on: SK-N-AS cells (human neuroblastoma); test: Free intracellular Ca2+ concentration in SK-N-AS cells (fluo-3 AM, confocal microscopy); assay type: cell-based; conditions: 1 μM
Procedure: In these experiments the variation in free intracellular calcium [Ca^2+]i concentration was measured in SK-N-AS cells (human neuroblastoma, ATCC No. CRL-2137) after addition of 1 μmolar of peptides SEQ ID NO 1 or SEQ ID NO 8, or of 1 μmolar captopril. Cells were kept in DMEM (Dulbecco Modified Medium), supplemented with 10% fetal bovine serum (FBS) and 1% non-essential amino acids, at 5% CO2 atmosphere, at 37° C., and 95% relative humidity. Cells were treated with trypsin, and replicated at adequate cell concentrations.
Measurements of variation in the concentration of free [Ca^2+]i were performed with a confocal microscope LSM 510 (Zeiss, Jena, Germany), as described by Martins et al., (Martins et al., Neuronal differentiation of P19 embryonal carcinoma cells modulates kinin B2 receptor gene expression and function. J. Biol. Chem. 280: 19576-19586, 2005). Approximately 5×10^4 SK-N-AS cells were plated on 60 mm plates 24 hours prior to measurement, and then treated with 4 μM fluo-3 AM (Invitrogen Corporation) in 0.5% DMSO and 0.1% non-ionic surfactant pluronic acid F-127 for 30 minutes at 37° C. Cells were washed with DMEM containing 10% FBS, and transferred to defined medium (5 μg/ml insulin, 30 μg/ml transferrin, 20 μM ethanolamine, 30 nM sodium selenite, 1 μM sodium pyruvate, 1% non-essential amino acids, 1 mM glutamine, 100 μg/ml penicillin, 100 μg/ml streptomycin, 10 mM HEPES pH 7.4 in DMEM). The fluorescent fluo-3 AM was excited at 488 nm, and the fluorescence measured at 526 nm.
Variations in the [Ca^2+]i were measured in non-stimulated cells, and in cells stimulated with peptides SEQ ID NO 1 or SEQ ID NO 8, or with captopril (Sigma Aldrich). Increase of fluorescence was monitored for 2 minutes, and images were acquired in 256×256 pixels every second. At the end of each experiment, 5 μM ionophore (4-Br-A23187) were added, followed by 10 mM EGTA, or 20 μM digitonin to determine maximum and minimum fluorescence, Fmax and Fmin respectively, as described by Grynkiewicz et al., (1985).
Intracellular calcium concentrations [Ca^2+]i, related to fluorescence (F) values obtained after addition of peptides SEQ ID NO 1 or SEQ ID NO 8, were calculated with the equation: [Ca^2+]=Kd(F−Fmin)/(Fmax−F), assuming Kd=450 nM for fluo-3 AM (Hallett et al., 1990).

CC(CS)C(=O)N1CCC[C@@H]1C(=O)O (stereo partly drawn) [captopril, D-3-mercapto-2-methyl-1-oxopropyl-L-proline, reference compound]
molar dose needed for anti-hypertensive activity relative to the peptides ([1]; e.g. 10 μmoles/Kg, the dose that inhibits ACE in vivo): approximately 1000 fold | change of intracellular [Ca2+]i [2]: no change; also recorded: did not cause any change

<ENWPHPQIPP [SEQ ID NO 8]
dose of optimum anti-hypertensive activity ([1]; effect is reduced at higher and at lower doses): ~71 nmoles/Kg of body weight | change of intracellular [Ca2+]i [2]: Increase
